In US6673793B2, “Oxazinoquinolones useful for the treatment of viral infections” (Pharmacia & Upjohn Co., priority 2000, dated 2004) one finds IC50 and melting point data, which are given here for 21 molecules.

One series has as its target T1, CMV polymerase (Human cytomegalovirus, UniProt P08546).
T1 construct: made in house; host or cells: recombinant baculovirus-infected SF-9 cells
The series can be described thus: HCMV polymerase assay, scintillation proximity assay (SPA), modified version. It counts as biochemical. The settings on record: modified HCMV polymerase SPA assay: compounds diluted in 100% DMSO, 4.5 mM DTT in polymerase buffer, different lot of CMV polymerase; read-out: CMV polymerase IC50. As to the method: The HCMV polymerase assay is performed using a scintillation proximity assay (SPA) as described in several references, such as N. D. Cook, et al., Pharmaceutical Manufacturing International, pages 49-53 (1992); K. Takeuchi, Laboratory Practice, September issue (1992); U.S. Pat. No. 4,568,649 (1986); which are incorporated by reference herein. Reactions are performed in 96-well plates. The assay is conducted in 100 μl volume with 5.4 mM HEPES (pH 7.5), 11.7 mM KCl, 4.5 mM MgCl2, 0.36 mg/ml BSA, and 90 nM ^3H-dTTP. Assays are run with and without CHAPS, (3-[(3-Cholamidopropyl)-dimethylammonio]-1-propane-sulfonate) at a final concentration of 2 mM. HCMV polymerase is diluted in enzyme dilution buffer containing 50% glycerol, 250 mM NaCl, 10 mM HEPES (pH 7.5), 100 μg/ml BSA, and 0.01% sodium azide. The HCMV polymerase, which is expressed in recombinant baculovirus-infected SF-9 cells and purified according to literature procedures, is added at 10% (or 10 μl) of the final reaction volume, i.e., 100 μl. Compounds are diluted in 50% DMSO and 10 μl are added to each well. Control wells contain an equivalent concentration of DMSO. Unless noted otherwise, reactions are initiated via the addition of 6 nM biotinylated poly(dA)-oligo(dT) template/primer to reaction mixtures containing the enzyme, substrate, and compounds of interest. Plates are incubated in a 25 C. or 37 C. H2O bath and terminated via the addition of 40 μl/reaction of 0.5 M EDTA (pH 8) per well. Reactions are terminated within the time-frame during which substrate incorporation is linear and varied depending upon the enzyme and conditions used, i.e., 30 min. for HCMV polymerase. Ten μl of streptavidin-SPA beads (20 mg/ml in PBS/10% glycerol) are added following termination of the reaction. Plates are incubated 10 min. at 37 C., then equilibrated to room temperature, and counted on a Packard Topcount. Linear regressions are performed and IC50's are calculated using computer software.
A modified version of the above HCMV polymerase assay is performed as described above, but with the following changes: Compounds are diluted in 100% DMSO until final dilution into assay buffer. In the previous assay, compounds are diluted in 50% DMSO. 4.5 mM dithiotherotol (DTT) is added to the polymerase buffer.

T1 sequence (P08546 whole entry): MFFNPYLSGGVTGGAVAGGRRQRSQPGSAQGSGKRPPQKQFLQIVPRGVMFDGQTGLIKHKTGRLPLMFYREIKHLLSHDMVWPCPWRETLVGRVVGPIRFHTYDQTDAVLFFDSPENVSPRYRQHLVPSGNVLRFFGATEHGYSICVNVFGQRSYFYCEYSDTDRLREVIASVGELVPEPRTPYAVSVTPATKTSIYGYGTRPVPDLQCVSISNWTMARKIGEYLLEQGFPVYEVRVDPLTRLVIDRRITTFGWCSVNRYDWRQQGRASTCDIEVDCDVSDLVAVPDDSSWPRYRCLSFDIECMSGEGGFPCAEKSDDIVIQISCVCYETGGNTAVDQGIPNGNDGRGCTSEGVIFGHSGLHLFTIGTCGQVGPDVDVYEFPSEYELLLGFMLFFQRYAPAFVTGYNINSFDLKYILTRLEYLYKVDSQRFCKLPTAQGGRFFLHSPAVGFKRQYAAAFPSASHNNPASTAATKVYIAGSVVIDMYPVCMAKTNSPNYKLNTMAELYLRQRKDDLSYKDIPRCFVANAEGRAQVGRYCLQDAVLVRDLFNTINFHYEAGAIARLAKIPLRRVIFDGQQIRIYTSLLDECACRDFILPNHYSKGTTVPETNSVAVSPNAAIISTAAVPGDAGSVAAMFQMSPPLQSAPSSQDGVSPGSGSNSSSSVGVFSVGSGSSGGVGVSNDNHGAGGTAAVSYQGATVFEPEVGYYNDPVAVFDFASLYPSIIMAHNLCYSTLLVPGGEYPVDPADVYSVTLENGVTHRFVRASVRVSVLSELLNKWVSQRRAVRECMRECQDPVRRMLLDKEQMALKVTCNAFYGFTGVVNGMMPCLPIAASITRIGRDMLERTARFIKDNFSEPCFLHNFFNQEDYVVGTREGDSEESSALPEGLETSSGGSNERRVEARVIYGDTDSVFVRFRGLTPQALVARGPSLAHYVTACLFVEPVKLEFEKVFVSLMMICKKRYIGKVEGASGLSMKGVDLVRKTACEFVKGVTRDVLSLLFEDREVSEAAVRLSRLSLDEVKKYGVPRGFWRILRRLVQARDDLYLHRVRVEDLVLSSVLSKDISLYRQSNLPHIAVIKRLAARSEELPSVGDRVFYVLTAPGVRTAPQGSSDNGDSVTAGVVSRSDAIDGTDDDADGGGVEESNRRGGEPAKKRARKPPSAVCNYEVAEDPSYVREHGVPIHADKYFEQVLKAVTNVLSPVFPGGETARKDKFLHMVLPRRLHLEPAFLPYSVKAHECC

In turn, `O=C(NCc1ccc(Cl)cc1)c1cn2c3c(cc(CN4CCOCC4)cc3c1=O)OC(CN1CCOCC1)C2` (stereo not shown) [Example 2, N-(4-Chlorobenzyl)-2,9-bis(4-morpholinylmethyl)-7-oxo-2,3-dihydro-7H-[1,4]oxazino[2,3,4-ij]quinoline-6-carboxamide] had a melting point of 178 to 180 °C. In addition, the IC50 on CMV polymerase came out at 0.76 µM.
On to `CN(C)CC1Cn2cc(C(=O)NCc3ccc(Cl)cc3)c(=O)c3cc(CN4CCOCC4)cc(c32)O1` (stereo not shown) [Example 3, N-(4-Chlorobenzyl)-2-[(dimethylamino)methyl]-9-(4-morpholinylmethyl)-7-oxo-2,3-dihydro-7H-[1,4]oxazino[2,3,4-ij]quinoline-6-carboxamide], for which the melting point lay within 168 to 170 °C. The IC50 on CMV polymerase is 0.76 µM.
On to `CN1CCN(CC2Cn3cc(C(=O)NCc4ccc(Cl)cc4)c(=O)c4cc(CN5CCOCC5)cc(c43)O2)CC1` (stereo not shown) [Example 4, N-(4-Chlorobenzyl)-2-[(4-methyl-1-piperazinyl)methyl]-9-(4-morpholinylmethyl)-7-oxo-2,3-dihydro-7H-[1,4]oxazino[2,3,4-ij]quinoline-6-carboxamide], for which the melting point is 201 to 208 °C (dec.). Also, on CMV polymerase, the IC50 worked out at 1.3 µM.
`O=C(NCc1ccc(Cl)cc1)c1cn2c3c(cc(CN4CCOCC4)cc3c1=O)OC(CN1CCCC1)C2` (stereo not shown) [Example 5, N-(4-Chlorobenzyl)-9-(4-morpholinylmethyl)-7-oxo-2-(1-pyrrolidinylmethyl)-2,3-dihydro-7H-[1,4]oxazino[2,3,4-ij]quinoline-6-carboxamide] displayed a melting point of 209.5 to 212 °C. Further, at CMV polymerase, the IC50 was determined as 1.1 µM.
The like results for `O=C(NCc1ccc(Cl)cc1)c1cn2c3c(cc(CN4CCOCC4)cc3c1=O)OC(CN1CCCCC1)C2` (stereo not shown) [Example 8, N-(4-Chlorobenzyl)-9-(4-morpholinylmethyl)-7-oxo-2-(1-piperidinylmethyl)-2,3-dihydro-7H-[1,4]oxazino[2,3,4-ij]quinoline-6-carboxamide] were, in that order, 213 to 215 °C and 1.5 µM.
The like results for `O=C(NCc1ccc(Cl)cc1)c1cn2c3c(cc(CN4CCOCC4)cc3c1=O)OC(CNCc1ccncc1)C2` (stereo not shown) [Example 12, N-(4-Chlorobenzyl)-9-(4-morpholinylmethyl)-7-oxo-2-{[(4-pyridinylmethyl)amino]methyl}-2,3-dihydro-7H-[1,4]oxazino[2,3,4-ij]quinoline-6-carboxamide] were, in that order, 164 to 167 °C and 0.59 µM.
In the same order, the values of `O=C(NCc1ccc(Cl)cc1)c1cn2c3c(cc(CN4CCOCC4)cc3c1=O)OC(Cn1ccnc1)C2` (stereo not shown) [Example 13, N-(4-Chlorobenzyl)-2-(1H-imidazol-1-ylmethyl)-9-(4-morpholinylmethyl)-7-oxo-2,3-dihydro-7H-[1,4]oxazino[2,3,4-ij]quinoline-6-carboxamide] are 217 to 219 °C (dec.) and 0.59 µM.
`CSCC1Cn2cc(C(=O)NCc3ccc(Cl)cc3)c(=O)c3cc(CN4CCOCC4)cc(c32)O1` (stereo not shown) [Example 14, N-(4-Chlorobenzyl)-2-[(methylsulfanyl)methyl]-9-(4-morpholinylmethyl)-7-oxo-2,3-dihydro-7H-[1,4]oxazino[2,3,4-ij]quinoline-6-carboxamide]: the melting point is 190 to 191 °C. For the same molecule, the IC50 at CMV polymerase was found to be 0.55 µM.
Regarding `CC(C)(C)SCC1Cn2cc(C(=O)NCc3ccc(Cl)cc3)c(=O)c3cc(CN4CCOCC4)cc(c32)O1` (stereo not shown) [Example 15, 2-[(tert-Butylsulfanyl)methyl]-N-(4-chlorobenzyl)-9-(4-morpholinylmethyl)-7-oxo-2,3-dihydro-7H-[1,4]oxazino[2,3,4-ij]quinoline-6-carboxamide], the melting point is 198 to 201 °C. In addition, the IC50 at CMV polymerase was 0.42 µM.
`COC(=O)CSCC1Cn2cc(C(=O)NCc3ccc(Cl)cc3)c(=O)c3cc(CN4CCOCC4)cc(c32)O1` (stereo not shown) [Example 18, Methyl ({[6-{[(4-chlorobenzyl)amino]carbonyl}-9-(4-morpholinylmethyl)-7-oxo-2,3-dihydro-7H-[1,4]oxazino[2,3,4-ij]quinolin-2-yl]methyl}sulfanyl)acetate] came in with a melting point of 182.5 to 183 °C. Also, the IC50 at CMV polymerase turned out to be 0.58 µM.
`CC(=O)OCC1Cn2cc(C(=O)NCc3ccc(Cl)cc3)c(=O)c3cc(CN4CCOCC4)cc(c32)O1` (stereo not shown) [Example 24, [6-{[(4-Chlorobenzyl)amino]carbonyl}-9-(4-morpholinylmethyl)-7-oxo-2,3-dihydro-7H-[1,4]oxazino[2,3,4-ij]quinolin-2-yl]methyl acetate] came in with a melting point of 215 to 218 °C. Further, the IC50 on CMV polymerase is 0.74 µM.
As for `O=C(NCc1ccc(Cl)cc1)c1cn2c3c(cc(CN4CCOCC4)cc3c1=O)OC(F)(F)C2` [Example 28, N-(4-Chlorobenzyl)-2,2-difluoro-9-(4-morpholinylmethyl)-7-oxo-2,3-dihydro-7H-[1,4]oxazino[2,3,4-ij]quinoline-6-carboxamide], the melting point is 213.5 to 216.5 °C. The IC50 on CMV polymerase is 0.6 µM.
Regarding `O=C(NCc1ccc(Cl)cc1)c1cn2c3c(cc(CN4CCOCC4)cc3c1=O)OC(c1ccccn1)C2` (stereo not shown) [Example 33, N-(4-Chlorobenzyl)-9-(4-morpholinylmethyl)-7-oxo-2-(2-pyridinyl)-2,3-dihydro-7H1-[1,4]oxazino[2,3,4-ij]quinoline-6-carboxamide], the IC50 at CMV polymerase was found to be 0.52 µM.
The same measure, in the same setting: the figure for `O=C(NCc1ccc(Cl)cc1)c1cn2c3c(cc(CN4CCOCC4)cc3c1=O)OC(c1cccnc1)C2` (stereo not shown) [Example 34, N-(4-Chlorobenzyl)-9-(4-morpholinylmethyl)-7-oxo-2-(3-pyridinyl)-2,3-dihydro-7H-[1,4]oxazino[2,3,4-ij]quinoline-6-carboxamide] is 0.48 µM; for `O=C(NCc1ccc(Cl)cc1)c1cn2c3c(cc(CN4CCOCC4)cc3c1=O)OC(c1ccncc1)C2` (stereo not shown) [Example 35, N-(4-Chlorobenzyl)-9-(4-morpholinylmethyl)-7-oxo-2-(4-pyridinyl)-2,3-dihydro-7H-[1,4]oxazino[2,3,4-ij]quinoline-6-carboxamide] it is 0.61 µM.
In the case of `N#Cc1cccc(C2Cn3cc(C(=O)NCc4ccc(Cl)cc4)c(=O)c4cc(CN5CCOCC5)cc(c43)O2)c1` (stereo not shown) [Example 36, N-(4-Chlorobenzyl)-2-(3-cyanophenyl)-9-(morpholin-4-ylmethyl)-7-oxo-2,3-dihydro-7H-[1,4]oxazino[2,3,4-ij]quinoline-6-carboxamide], at CMV polymerase, the IC50 was 0.42 µM.
Turning to `O=C(NCc1ccc(Cl)cc1)c1cn2c3c(cc(CN4CCOCC4)cc3c1=O)OC(c1ccoc1)C2` (stereo not shown) [Example 37, N-(4-Chlorobenzyl)-2-(3-furyl)-9-(morpholin-4-ylmethyl)-7-oxo-2,3-dihydro-7H-[1,4]oxazino[2,3,4-ij]quinoline-6-carboxamide], the melting point lay in the range of 193 to 196 °C. At CMV polymerase, the IC50 was determined as 0.38 µM.
On to `O=C(NCc1ccc(Cl)cc1)c1cn2c3c(cc(CN4CCOCC4)cc3c1=O)OC(c1cccs1)C2` (stereo not shown) [Example 38, N-(4-Chlorobenzyl)-9-(morpholin-4-ylmethyl)-7-oxo-2-thien-2-yl-2,3-dihydro-7H-[1,4]oxazino[2,3,4-ij]quinoline-6-carboxamide], for which, at CMV polymerase, the IC50 was found to be 0.46 µM.
As to `O=C(NCc1ccc(Cl)cc1)c1cn2c3c(cc(CN4CCOCC4)cc3c1=O)OC(CNCc1ccc(Cl)cc1)C2` (stereo not shown) [Example 56, N-(4-Chlorobenzyl)-2-{[(4-chlorobenzyl)amino]methyl}-9-(morpholin-4-ylmethyl)-7-oxo-2,3-dihydro-7H-[1,4]oxazino[2,3,4-ij]quinoline-6-carboxamide], the IC50 on CMV polymerase was 0.66 µM.
For `COCOc1ccccc1C1Cn2cc(C(=O)NCc3ccc(Cl)cc3)c(=O)c3cc(CN4CCOCC4)cc(c32)O1` (stereo not shown) [Example 64, N-(4-Chlorobenzyl)-2-[2-(methoxymethoxy)phenyl]-9-(morpholin-4-ylmethyl)-7-oxo-2,3-dihydro-7H-[1,4]oxazino[2,3,4-ij]quinoline-6-carboxamide], the IC50 on CMV polymerase came out at 1.05 µM.
Still for that read-out and setting: the figure for `O=C(NCc1ccc(Cl)cc1)c1cn2c3c(cc(CN4CCOCC4)cc3c1=O)OC(c1ccccc1O)C2` (stereo not shown) [Example 68, N-(4-Chlorobenzyl)-2-(2-hydroxyphenyl)-9-(morpholin-4-ylmethyl)-7-oxo-2,3-dihydro-7H-[1,4]oxazino[2,3,4-ij]quinoline-6-carboxamide] is 0.82 µM.
